Test system: bladder cancer
Details: bladder cancer subject on chemotherapy

C=C(C)[C@H]1CC=C(C)CC1 [d-limonene]
reduction of tumor size at subsequent surgical procedure (earlier tumors 3 cm to 5 cm, then millimeter-sized): about 10 foled
tumor morphology at subsequent surgical procedure (tumors still present): ill-defined and amorphous
